The text below walks through data of ChEMBL document CHEMBL6087406, “2-Arylhydrazinylidene-3-oxo-3-polyfluoroalkylpropanoic acids as selective and effective carboxylesterase inhibitors with powerful antioxidant potential” (Bioorg Med Chem, 2024).

Data set [1] is described as follows: Antioxidant activity assessed as trolox equivalent of FRAP radical scavenging activity measured after 1 hrs by spectrophotometric analysis. The format is functional.
Data set [2] can be described thus: Antioxidant activity assessed as trolox equivalent of ORAC radical scavenging activity at 10 uM measured for 2 hrs by AAPH based fluorescence microplate reader. The format is functional.
Data set [3] in a line: Antioxidant activity assessed as ORAC radical scavenging activity by measuring fold change in trolox equivalent at 10 uM measured for 2 hrs by AAPH based fluorescence microplate reader relative to trolox. The format is functional.
Data set [4] is described as follows: Antioxidant activity against AAPH-induced oxidative stress in Sprague-Dawley rat erythrocytes assessed as membrane stabilizing activity by measuring hemolysis at 100 uM preincubated for 15 mins followed by AAPH addition and measured after 3 hrs by microplate reader analysis (reference value: 88.6 +/- 3.7%). Conditions: time 195 min, 3.25 h. It is filed as functional, Erythrocyte.

The nature of data set [5]: Hemolytic activity in AAPH-induced Sprague-Dawley rat erythrocytes assessed as hemolysis at 100 uM measured after 3 hrs by microplate reader analysis relative to control. Conditions: read-out: Activity. The format is toxicity, cell-based, Erythrocyte.
A short description of data set [6]: Antioxidant activity against AAPH-induced oxidative stress in Sprague-Dawley rat erythrocytes assessed as inhibition of lipid peroxidation by measuring fold change at 100 uM preincubated for 15 mins followed by AAPH addition and measured after 3 hrs by TBARS assay (reference value: 1). Conditions: time 195 min, 3.25 h. The format is functional, Erythrocyte.
A short description of data set [7]: Metal chelating activity assessed as Fe2+-compound complex formation by measuring absorbance at 400 uM measured after 30 mins in presence of FeCl2.4H2O by UV-Vis spectroscopic analysis (reference value: 245 to 373 nanometer).
Data set [8] has as its target T1, Liver carboxylesterase (Sus scrofa, UniProt Q29550).
T1 sequence (Q29550 whole entry): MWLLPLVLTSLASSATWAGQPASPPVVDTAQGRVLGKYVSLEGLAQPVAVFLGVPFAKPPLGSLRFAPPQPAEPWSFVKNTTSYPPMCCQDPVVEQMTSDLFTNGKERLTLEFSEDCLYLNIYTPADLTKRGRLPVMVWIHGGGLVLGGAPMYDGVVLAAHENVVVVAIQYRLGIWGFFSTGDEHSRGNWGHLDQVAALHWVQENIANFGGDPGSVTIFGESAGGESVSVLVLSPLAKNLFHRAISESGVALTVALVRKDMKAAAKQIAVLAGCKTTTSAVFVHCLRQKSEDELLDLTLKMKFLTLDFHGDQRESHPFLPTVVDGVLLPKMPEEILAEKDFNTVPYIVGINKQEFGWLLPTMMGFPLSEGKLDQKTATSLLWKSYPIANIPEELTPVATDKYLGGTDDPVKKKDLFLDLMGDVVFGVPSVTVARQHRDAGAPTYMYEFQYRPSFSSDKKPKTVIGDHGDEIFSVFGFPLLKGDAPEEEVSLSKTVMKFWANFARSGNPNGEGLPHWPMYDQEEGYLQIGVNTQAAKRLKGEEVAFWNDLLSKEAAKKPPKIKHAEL
Put plainly: Inhibition of porcine liver carboxylesterase using 4-nitrophenylacetate as substrate assessed as release of 4-nitrophenol by spectrophotometric analysis.

Data set [9] has as its target Acetylcholinesterase (Homo sapiens) (UniProt P22303). Put plainly: Inhibition of human erythrocyte acetylcholinesterase using acetylthiocholine as substrate at 20 uM by Ellman's method relative to control.
Data set [10] addresses Cholinesterase (Equus caballus) (UniProt P81908). In words: Inhibition of equine serum butyrylcholinesterase using butyrylthiocholine as substrate at 20 uM by Ellman's method relative to control.
A short description of data set [11]: Antioxidant activity assessed as ABTS radical scavenging activity by measuring trolox equivalent antioxidant capacity after 1 hrs by UV/Vis microplate spectrophotometric analysis. It is filed as functional.
Data set [12] in a line: Antioxidant activity assessed as reduction in ABTS radical measured after 1 hrs by UV/Vis microplate spectrophotometric analysis. The format is functional.
Data set [13] is described as follows: Metal chelating activity assessed as Fe2+-compound complex formation by measuring absorbance at 400 uM measured after 30 mins in presence of FeCl2.4H2O by UV-Vis spectroscopic analysis (reference value: 253 to 384 nanometer).
Another data set addresses T2, Liver carboxylesterase 1 (Homo sapiens, UniProt P23141).
T2 sequence (P23141 whole entry): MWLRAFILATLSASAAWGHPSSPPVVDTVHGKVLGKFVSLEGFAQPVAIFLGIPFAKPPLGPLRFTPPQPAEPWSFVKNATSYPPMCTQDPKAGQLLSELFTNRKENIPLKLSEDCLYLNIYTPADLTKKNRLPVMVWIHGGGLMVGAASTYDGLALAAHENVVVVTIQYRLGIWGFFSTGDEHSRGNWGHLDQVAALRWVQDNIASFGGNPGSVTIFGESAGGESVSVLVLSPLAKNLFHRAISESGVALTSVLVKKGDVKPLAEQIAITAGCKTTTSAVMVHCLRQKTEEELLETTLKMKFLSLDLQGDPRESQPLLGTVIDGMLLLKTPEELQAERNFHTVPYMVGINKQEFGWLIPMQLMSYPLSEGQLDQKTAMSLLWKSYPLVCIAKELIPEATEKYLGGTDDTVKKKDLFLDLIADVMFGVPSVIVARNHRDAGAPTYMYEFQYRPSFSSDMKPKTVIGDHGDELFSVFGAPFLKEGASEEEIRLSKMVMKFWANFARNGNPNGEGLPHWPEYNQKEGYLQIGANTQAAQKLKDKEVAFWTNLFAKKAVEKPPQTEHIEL
Put plainly: Inhibition of human CES1 using 4-nitrophenylacetate as substrate assessed as release of 4-nitrophenol by spectrophotometric analysis.

In another data set the target is T3, Cocaine esterase (Homo sapiens, UniProt O00748).
T3 sequence (O00748 whole entry): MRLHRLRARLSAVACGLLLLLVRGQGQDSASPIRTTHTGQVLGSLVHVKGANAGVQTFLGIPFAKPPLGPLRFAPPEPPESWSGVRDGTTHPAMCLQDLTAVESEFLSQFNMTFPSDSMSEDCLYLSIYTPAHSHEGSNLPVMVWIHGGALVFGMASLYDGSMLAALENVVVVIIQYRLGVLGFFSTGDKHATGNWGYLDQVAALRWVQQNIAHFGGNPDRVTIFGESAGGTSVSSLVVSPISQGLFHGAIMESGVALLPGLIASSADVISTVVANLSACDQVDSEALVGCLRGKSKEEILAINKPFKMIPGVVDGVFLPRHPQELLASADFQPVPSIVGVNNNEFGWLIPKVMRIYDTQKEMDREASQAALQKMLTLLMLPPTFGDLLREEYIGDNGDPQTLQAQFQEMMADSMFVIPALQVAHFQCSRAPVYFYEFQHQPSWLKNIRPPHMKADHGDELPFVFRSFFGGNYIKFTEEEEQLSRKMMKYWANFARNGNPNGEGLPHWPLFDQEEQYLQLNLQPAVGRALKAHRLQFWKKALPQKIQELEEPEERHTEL
In words: Inhibition of human CES2 using 4-nitrophenylacetate as substrate assessed as release of 4-nitrophenol by spectrophotometric analysis.

Data set [14] concerns the target T1, Liver carboxylesterase. In words: Reversible mixed type inhibition of porcine liver carboxylesterase using 4-nitrophenylacetate as substrate assessed as inhibition constant of competitive component by Lineweaver-Burk plot analysis.
Data set [15] concerns the target T1, Liver carboxylesterase. Put plainly: Reversible mixed type inhibition of porcine liver carboxylesterase using 4-nitrophenylacetate as substrate assessed as inhibition constant of non-competitive component by Lineweaver-Burk plot analysis.

Activity calls are given as the source filed them. The calls are words filed in the database; no cut-off is given here.

Acetylcholinesterase (Homo sapiens), sequence (P22303 whole entry): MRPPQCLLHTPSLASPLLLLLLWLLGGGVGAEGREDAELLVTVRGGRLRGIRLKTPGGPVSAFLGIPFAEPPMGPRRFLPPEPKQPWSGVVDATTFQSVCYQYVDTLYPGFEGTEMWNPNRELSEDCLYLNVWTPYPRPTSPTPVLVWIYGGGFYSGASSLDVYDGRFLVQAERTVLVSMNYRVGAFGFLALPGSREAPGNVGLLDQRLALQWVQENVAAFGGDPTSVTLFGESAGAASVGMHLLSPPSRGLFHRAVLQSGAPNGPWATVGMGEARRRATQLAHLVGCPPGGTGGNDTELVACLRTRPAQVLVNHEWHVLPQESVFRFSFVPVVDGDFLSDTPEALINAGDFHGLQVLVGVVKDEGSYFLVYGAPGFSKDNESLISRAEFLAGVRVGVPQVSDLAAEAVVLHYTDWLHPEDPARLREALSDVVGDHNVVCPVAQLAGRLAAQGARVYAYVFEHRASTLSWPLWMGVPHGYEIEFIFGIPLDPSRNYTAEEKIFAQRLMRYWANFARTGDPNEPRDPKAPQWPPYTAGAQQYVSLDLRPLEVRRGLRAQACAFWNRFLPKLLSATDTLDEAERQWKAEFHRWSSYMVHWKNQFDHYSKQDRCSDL
Cholinesterase (Equus caballus), sequence (P81908 whole entry): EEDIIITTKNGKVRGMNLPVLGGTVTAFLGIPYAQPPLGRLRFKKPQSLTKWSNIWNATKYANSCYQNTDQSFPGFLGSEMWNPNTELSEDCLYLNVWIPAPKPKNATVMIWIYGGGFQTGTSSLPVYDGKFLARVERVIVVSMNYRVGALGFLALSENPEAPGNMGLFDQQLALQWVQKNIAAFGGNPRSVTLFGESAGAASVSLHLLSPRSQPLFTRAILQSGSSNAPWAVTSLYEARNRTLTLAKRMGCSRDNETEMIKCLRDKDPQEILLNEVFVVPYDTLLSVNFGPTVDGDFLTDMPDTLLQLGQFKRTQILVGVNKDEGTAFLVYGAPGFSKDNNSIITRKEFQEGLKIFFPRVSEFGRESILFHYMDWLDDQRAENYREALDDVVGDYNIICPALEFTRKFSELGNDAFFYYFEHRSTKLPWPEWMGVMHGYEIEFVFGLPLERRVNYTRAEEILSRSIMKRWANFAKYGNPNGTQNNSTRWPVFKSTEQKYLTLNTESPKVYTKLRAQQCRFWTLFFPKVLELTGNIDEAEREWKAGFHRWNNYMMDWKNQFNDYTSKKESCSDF

In the case of `COc1ccc(N/N=C(/C(C)=O)C(=O)O)cc1`, the Activity in data set [1] came to 2.5; in [2], 3.67; in data set [4], 45.6%; in data set [7], 263 nm. The results for the fold change (FC) in [3] and in data set [6] were over 3 and 0.24, respectively. Moreover, in data set [5], the hemolysis at 3 h, 100 µM came out at 2%.
Turning to `COc1ccc(N/N=C(\C(=O)O)C(=O)C(F)(F)C(F)(F)C(F)(F)F)cc1`, the IC50 on Liver carboxylesterase [8] was found to be 96 nM; in data set [12], 8200 nM. Further, the values for the inhibition in [9] and in [10] were 19.4% and 13.4%, respectively. Besides, the Activity in data set [11] was found to be 2.1; in [1], 1.86; in data set [2], 3.67; in data set [4], 95.9%; in [13] it was 271 nm. Further, the results for the fold change (FC) in data set [3] and in [6] were over 3 and 0.63, respectively. Also, the hemolysis at 3 h, 100 µM in data set [5] was 2%.
Take `Cc1ccc(N/N=C(\C(=O)O)C(=O)C(F)(F)C(F)(F)C(F)(F)C(F)(F)F)cc1`: the half-inhibitory concentration (IC50) on Liver carboxylesterase [8] was determined as 42 nM; at Liver carboxylesterase 1, 102 nM; at Cocaine esterase, 109 nM; in data set [12] it was 10900 nM. The compound further showed an inhibition in data set [9] of 9.8%. Further, the inhibition entry in data set [10] is “inactive”. In addition, the Ki is 18 nM on Liver carboxylesterase [14] and 27 nM on Liver carboxylesterase [15]. Besides, the results for the Activity in data set [11], in [1] and in [2] were 1.37, 0.14 and 3.2, respectively. For the same compound, the fold change (FC) in data set [3] is over 3.
